Measurements reported in patent US8541418B2, “Inhibitors of polo-like kinase” (Elan Pharmaceutical, Inc., priority 2009, dated 2013).

Assays:
Type in all cases: biochemical
[1] = target: PLK1 (Homo sapiens, UniProt P53350); assay: PLK TR-FRET peptide assay, PLK1; conditions: GST-PLK1, 60 min reaction
[2] = target: PLK2 (Homo sapiens, UniProt Q9NYY3); assay: PLK TR-FRET peptide assay, PLK2; conditions: for IC50: PLK TR-FRET peptide assay, GST-PLK2, 60 min reaction, read-out: Plk2 IC50
[3] = target: PLK3 (Homo sapiens, UniProt Q9H4B4); assay: PLK TR-FRET peptide assay, PLK3; conditions: GST-PLK3, 15 min reaction, read-out: Plk3 IC50
Chain of PLK3 (Q9H4B4 whole entry): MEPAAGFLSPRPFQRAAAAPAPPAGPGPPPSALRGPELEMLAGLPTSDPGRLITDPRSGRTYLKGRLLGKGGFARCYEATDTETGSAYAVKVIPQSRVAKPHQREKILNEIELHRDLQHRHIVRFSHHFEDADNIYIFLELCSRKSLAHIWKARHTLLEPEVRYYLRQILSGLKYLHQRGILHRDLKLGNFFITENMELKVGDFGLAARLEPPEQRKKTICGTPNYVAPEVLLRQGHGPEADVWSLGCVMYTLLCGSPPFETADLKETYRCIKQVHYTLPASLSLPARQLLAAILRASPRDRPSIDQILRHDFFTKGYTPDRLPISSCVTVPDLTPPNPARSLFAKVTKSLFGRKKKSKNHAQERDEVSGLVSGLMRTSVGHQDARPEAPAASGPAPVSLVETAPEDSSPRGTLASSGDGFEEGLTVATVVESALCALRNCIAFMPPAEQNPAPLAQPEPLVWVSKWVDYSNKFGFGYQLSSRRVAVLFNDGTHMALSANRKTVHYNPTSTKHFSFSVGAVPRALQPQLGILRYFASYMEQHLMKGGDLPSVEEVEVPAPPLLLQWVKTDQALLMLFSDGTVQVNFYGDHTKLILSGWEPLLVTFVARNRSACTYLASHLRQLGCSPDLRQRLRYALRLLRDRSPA

Chain of PLK1 (P53350 whole entry): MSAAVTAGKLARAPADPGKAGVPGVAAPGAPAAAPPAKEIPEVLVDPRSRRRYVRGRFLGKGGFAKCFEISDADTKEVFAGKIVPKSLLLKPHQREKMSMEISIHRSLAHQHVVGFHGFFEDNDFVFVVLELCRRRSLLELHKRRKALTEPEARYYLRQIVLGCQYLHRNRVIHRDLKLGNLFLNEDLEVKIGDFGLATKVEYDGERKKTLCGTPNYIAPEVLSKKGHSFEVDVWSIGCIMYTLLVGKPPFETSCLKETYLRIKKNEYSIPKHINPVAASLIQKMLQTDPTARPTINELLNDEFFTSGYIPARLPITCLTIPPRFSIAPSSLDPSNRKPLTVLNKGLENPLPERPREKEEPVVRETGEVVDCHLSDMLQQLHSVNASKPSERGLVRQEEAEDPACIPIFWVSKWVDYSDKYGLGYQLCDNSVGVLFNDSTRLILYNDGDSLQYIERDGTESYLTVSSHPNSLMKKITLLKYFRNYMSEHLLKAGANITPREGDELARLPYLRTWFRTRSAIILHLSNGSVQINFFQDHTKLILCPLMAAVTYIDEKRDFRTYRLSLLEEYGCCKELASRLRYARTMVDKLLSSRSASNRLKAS
Chain of PLK2 (Q9NYY3 whole entry): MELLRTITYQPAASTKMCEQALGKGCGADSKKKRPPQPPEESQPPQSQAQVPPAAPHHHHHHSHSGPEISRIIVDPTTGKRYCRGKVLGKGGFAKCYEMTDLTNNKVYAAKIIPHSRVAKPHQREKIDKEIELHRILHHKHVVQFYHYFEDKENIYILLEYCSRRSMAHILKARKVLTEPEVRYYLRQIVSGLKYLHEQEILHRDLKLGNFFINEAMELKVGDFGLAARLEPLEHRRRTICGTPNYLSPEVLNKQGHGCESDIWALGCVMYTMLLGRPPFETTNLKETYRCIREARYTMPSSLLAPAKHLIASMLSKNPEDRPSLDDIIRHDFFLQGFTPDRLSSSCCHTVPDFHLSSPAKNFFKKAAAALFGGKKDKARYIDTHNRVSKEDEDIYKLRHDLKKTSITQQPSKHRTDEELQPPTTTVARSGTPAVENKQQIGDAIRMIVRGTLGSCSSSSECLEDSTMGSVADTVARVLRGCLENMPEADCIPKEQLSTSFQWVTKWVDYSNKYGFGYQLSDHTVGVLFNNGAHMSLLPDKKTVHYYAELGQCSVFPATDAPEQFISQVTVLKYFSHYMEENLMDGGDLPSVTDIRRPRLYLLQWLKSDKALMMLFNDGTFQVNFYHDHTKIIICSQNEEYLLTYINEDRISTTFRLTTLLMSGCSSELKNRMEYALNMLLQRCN

Compound | IC50 [1] [µM] | IC50 [2] [µM] | IC50 [3] [µM] | relative PLK2 activity of the enantiomers ([2]; compared with the opposite enantiomer)
CC[C@@H]1C(=O)N(C)c2cnc(-n3ccnc3)nc2N1C1CCOCC1 [Example 295, (R)-7-ethyl-2-(1H-imidazol-1-yl)-5-methyl-8-(tetrahydro-2H-pyran-4-yl)-7,8-dihydropteridin-6(5H)-one] | 1 to 10 | 1 to 10 | 10 to 50 | 
CC[C@@H]1C(=O)N(C)c2cnc(N3CCN=C3C3CC3)nc2N1C(C)C [Example 297, (R)-2-(2-cyclopropyl-4,5-dihydro-1H-imidazol-1-yl)-7-ethyl-8-isopropyl-5-methyl-7,8-dihydropteridin-6(5H)-one] | 10 to 50 | 10 to 50 | 10 to 50 | 
CC(C)N1c2nc(-n3ccnc3-c3ccc(F)cc3)ncc2N(C)C(=O)C1(C)C [Example 298, 2-(2-(4-fluorophenyl)-1H-imidazol-1-yl)-8-isopropyl-5,7,7-trimethyl-7,8-dihydropteridin-6(5H)-one] | > 50 | 1 to 10 | > 50 | 
CCC1C(=O)N(C)c2cnc(-n3ccnc3)nc2N1c1ccccc1 (stereo not shown) [Example 300, 7-ethyl-2-(1H-imidazol-1-yl)-5-methyl-8-phenyl-7,8-dihydropteridin-6(5H)-one] | 1 to 10 | 1 to 10 | > 50 | 
CN1C(=O)[C@@H](CC(F)(F)F)N(CCC(F)(F)F)c2nc(-n3ccnc3)ncc21 [Example 301, (R)-2-(1H-imidazol-1-yl)-5-methyl-7-(2,2,2-trifluoroethyl)-8-(3,3,3-trifluoropropyl)-7,8-dihydropteridin-6(5H)-one] | 10 to 50 | < 1 | 10 to 50 | more active compound
CN1C(=O)[C@H](CC(F)(F)F)N(CCC(F)(F)F)c2nc(-n3ccnc3)ncc21 [Example 302, (S)-2-(1H-imidazol-1-yl)-5-methyl-7-(2,2,2-trifluoroethyl)-8-(3,3,3-trifluoropropyl)-7,8-dihydropteridin-6(5H)-one] | > 50 | 10 to 50 | > 50 | 
CN1C(=O)C2CC3CC3N2c2nc(-n3ccnc3-c3ccccc3)ncc21 (stereo not shown) [Example 304, 5-Methyl-2-(2-phenyl-imidazol-1-yl)-7,7a,8,8a-tetrahydro-5H,6aH-1,3,5,8b-tetraaza-cyclopropa[4,5]cyclopenta[1,2-a]naphthalen-6-one] | > 50 | 10 to 50 | > 50 | 
CC[C@@]12CCCN1c1nc(-c3cn[nH]c3-c3ccccc3)ncc1N(C)C2=O [Example 305, (S)-6a-ethyl-5-methyl-2-(5-phenyl-1H-pyrazol-4-yl)-6a,7,8,9-tetrahydropyrrolo[2,1-h]pteridin-6(5H)-one] | 1 to 10 | < 1 | 10 to 50 | 
CC[C@@H]1C(=O)N(C)c2cnc(-c3cn[nH]c3-c3cscn3)nc2N1C1CCCC1 [Example 307, (R)-8-cyclopentyl-7-ethyl-5-methyl-2-(5-(thiazol-4-yl)-1H-pyrazol-4-yl)-7,8-dihydropteridin-6(5H)-one] | < 1 | < 1 | < 1 | 
CC[C@]1(C)C(=O)N(C)c2cnc(-c3cn[nH]c3-c3nccs3)nc2N1CCC(F)(F)F [Example 310, (R)-7-ethyl-5,7-dimethyl-2-(5-(thiazol-2-yl)-1H-pyrazol-4-yl)-8-(3,3,3-trifluoropropyl)-7,8-dihydropteridin-6(5H)-one] | < 1 | < 1 | > 50 | 
CC[C@@]12CCC(=O)N1c1nc(-n3ccnc3)ncc1N(C)C2=O [Example 311, (S)-6a-ethyl-2-(1H-imidazol-1-yl)-5-methyl-7,8-dihydropyrrolo[2,1-h]pteridine-6,9(5H,6aH)-dione] | > 50 | > 50 | > 50 | 
CC[C@@H]1C(=O)N(C)c2cnc(-c3cn[nH]c3-c3ccc(F)cc3F)nc2N1C(C)C [Example 312, (R)-2-(5-(2,4-difluorophenyl)-1H-pyrazol-4-yl)-7-ethyl-8-isopropyl-5-methyl-7,8-dihydropteridin-6(5H)-one] | < 1 | < 1 | < 1 | 
CC[C@@H]1C(=O)N(C)c2cnc(-c3cn[nH]c3-c3ccccn3)nc2N1C(C)C [Example 313, (R)-7-ethyl-8-isopropyl-5-methyl-2-(5-(pyridin-2-yl)-1H-pyrazol-4-yl)-7,8-dihydropteridin-6(5H)-one] | 1 to 10 | < 1 | 1 to 10 | 
CC[C@@]12CCCN1c1nc(-c3nccnc3-c3ccccc3)ncc1N(C)C2=O [Example 316, (S)-6a-ethyl-5-methyl-2-(3-phenylpyrazin-2-yl)-6a,7,8,9-tetrahydropyrrolo[2,1-h]pteridin-6(5H)-one] | 10 to 50 | 1 to 10 | 1 to 10 | 
CC[C@@H]1C(=O)N(C)c2cnc(-c3cn[nH]c3-c3cscn3)nc2N1C(C)C [Example 320, (R)-7-ethyl-8-isopropyl-5-methyl-2-(5-(thiazol-4-yl)-1H-pyrazol-4-yl)-7,8-dihydropteridin-6(5H)-one] | 1 to 10 | < 1 | 1 to 10 | 
CC[C@@H]1C(=O)N(C)c2cnc(-n3ccnc3-c3ccc(F)cc3)nc2N1CC1CC1 [Example 322, (R)-8-(cyclopropylmethyl)-7-ethyl-2-(2-(4-fluorophenyl)-1H-imidazol-1-yl)-5-methyl-7,8-dihydropteridin-6(5H)-one] | 1 to 10 | < 1 | 1 to 10 | 
CC[C@@H]1CC[C@@]2(CC)C(=O)N(C)c3cnc(-n4ccnc4C)nc3N12 [Example 325, (6aS,9R)-6a,9-diethyl-5-methyl-2-(2-methyl-1H-imidazol-1-yl)-6a,7,8,9-tetrahydropyrrolo[2,1-h]pteridin-6(5H)-one] | 10 to 50 | 1 to 10 | 10 to 50 | 

Other lines, results leading:

IC50 [1] [µM] | IC50 [2] [µM] | IC50 [3] [µM] | relative PLK2 activity of the enantiomers ([2]; compared with the opposite enantiomer) | Compound
10 to 50 | 10 to 50 | 10 to 50 |  | CN1C(=O)C2(CC(F)(F)F)CCCN2c2nc(-n3ccnc3)ncc21 (stereo not shown) [Example 329, 2-(1H-imidazol-1-yl)-5-methyl-6a-(2,2,2-trifluoroethyl)-6a,7,8,9-tetrahydropyrrolo[2,1-h]pteridin-6(5H)-one]
1 to 10 | < 1 | 10 to 50 |  | CC[C@@H]1C(=O)N(C)c2cnc(-c3nccs3)nc2N1C1CCCC1 [Example 330, (R)-8-cyclopentyl-7-ethyl-5-methyl-2-(thiazol-2-yl)-7,8-dihydropteridin-6(5H)-one]
10 to 50 | 10 to 50 | > 50 |  | CCC1C(=O)N(C)c2cnc(-n3ccnc3)nc2N1c1cccc(-c2cncnc2)c1 (stereo not shown) [Example 333, 7-ethyl-2-(1H-imidazol-1-yl)-5-methyl-8-(3-(pyrimidin-5-yl)phenyl)-7,8-dihydropteridin-6(5H)-one]
1 to 10 | 1 to 10 | 10 to 50 |  | CC[C@@H]1CC[C@@]2(CC)C(=O)N(C)c3cnc(-n4ccnc4)nc3N12 [Example 334, (6aS,9R)-6a,9-diethyl-2-(1H-imidazol-1-yl)-5-methyl-6a,7,8,9-tetrahydropyrrolo[2,1-h]pteridin-6(5H)-one]
1 to 10 | < 1 | 10 to 50 |  | CC[C@@H]1C(=O)N(C)c2cnc(-n3ccnc3-c3ccccc3)nc2N1C1COC1 [Example 335, (R)-7-ethyl-5-methyl-8-(oxetan-3-yl)-2-(2-phenyl-1H-imidazol-1-yl)-7,8-dihydropteridin-6(5H)-one]
10 to 50 | 10 to 50 | > 50 |  | CCC1C(=O)N(C)c2cnc(-n3ccnc3)nc2N1c1cccc(-n2cccn2)c1 (stereo not shown) [Example 336, 8-(3-(1H-pyrazol-1-yl)phenyl)-7-ethyl-2-(1H-imidazol-1-yl)-5-methyl-7,8-dihydropteridin-6(5H)-one]
1 to 10 | < 1 | 1 to 10 |  | CC[C@@H]1C(=O)N(C)c2cnc(-c3sc(N)nc3-c3ccn[nH]3)nc2N1C(C)C [Example 337, (R)-2-(2-amino-4-(1H-pyrazol-5-yl)thiazol-5-yl)-7-ethyl-8-isopropyl-5-methyl-7,8-dihydropteridin-6(5H)-one]
> 50 | 10 to 50 | > 50 |  | CC[C@@]12CCCN1c1nc(-c3cn[nH]c3-c3nccs3)ncc1N(C)C2=O [Example 338, (S)-6a-ethyl-5-methyl-2-(5-(thiazol-2-yl)-1H-pyrazol-4-yl)-6a,7,8,9-tetrahydropyrrolo[2,1-h]pteridin-6(5H)-one]
10 to 50 | < 1 | 10 to 50 |  | CN1C(=O)C2(CC(F)(F)F)CCCN2c2nc(-n3ccnc3-c3ccccc3)ncc21 (stereo not shown) [Example 339, 5-methyl-2-(2-phenyl-1H-imidazol-1-yl)-6a-(2,2,2-trifluoroethyl)-6a,7,8,9-tetrahydropyrrolo[2,1-h]pteridin-6(5H)-one]
< 1 | < 1 | 1 to 10 |  | CC[C@@H]1CC[C@@]2(CC)C(=O)N(C)c3cnc(-c4cn[nH]c4-c4nccs4)nc3N12 [Example 340, (6aS,9R)-6a,9-diethyl-5-methyl-2-(5-(thiazol-2-yl)-1H-pyrazol-4-yl)-6a,7,8,9-tetrahydropyrrolo[2,1-h]pteridin-6(5H)-one]
> 50 | 1 to 10 | > 50 |  | CC[C@@H]1C(=O)N(C)c2cnc(-n3ccnc3-c3ccc(F)c(F)c3)nc2N1C1COC1 [Example 341, (R)-2-(2-(3,4-difluorophenyl)-1H-imidazol-1-yl)-7-ethyl-5-methyl-8-(oxetan-3-yl)-7,8-dihydropteridin-6(5H)-one]
1 to 10 | < 1 | 1 to 10 |  | CCC1C(=O)N(C)c2cnc(-n3ccnc3-c3ccc(F)cc3)nc2N1c1cccc(-c2cncnc2)c1 (stereo not shown) [Example 346, 7-ethyl-2-(2-(4-fluorophenyl)-1H-imidazol-1-yl)-5-methyl-8-(3-(pyrimidin-5-yl)phenyl)-7,8-dihydropteridin-6(5H)-one]
